The target in this assay is T1, TrkA (Homo sapiens, UniProt P04629).
T1 construct: purchased Cell Signaling
The assay is described as follows: TrkA kinase activity: phosphorylation of a fluorescently labeled peptide substrate (Caliper EZReader II). In kind it is biochemical. As to conditions: [E]=0.37 nM, [S]=1 μM, [ATP]=2 mM, room temperature, 3 hours; read-out: Trk A EC50. Here is the method: TrkA kinase activity was measured as the ability of the enzyme to phosphorylate a fluorescently labeled peptide substrate. Buffer salts, reagents, and fluorescently labeled peptides were purchased from Carna Biosciences and were of the highest quality available (QSS Assist TRICA_MSA Kit). Enzyme was purchased from Cell Signaling, and was used without further purification. 384-well round bottom assay plates were prepared by the addition of […] of a DMSO solution of compound at various concentrations to final inhibitor concentrations ranging from 100 μM to 0.2 μM. Next, assay buffer (10 μl) containing substrate and ATP were added, followed by addition of 10 μl of enzyme in assay buffer. Final assays concentrations were: [E]=0.37 nM, [S]=1 μM, [ATP]=2 mM. The reactions were incubated at room temperature for 3 hours resulting in approximately 15% substrate phosphorylation and were terminated by the addition of 5 μl of stop buffer. Substrates and products were separated on the Caliper EZReader II (Caliper LifeSciences, Inc.) using standard separation protocols. The percent inhibition was calculated for each compound concentration and the IC50 was determined using equation 1.

The EC50 is the concentration needed to bring the measured effect to its halfway point.

Structures are written as SMILES.

T1 sequence (P04629 33-796): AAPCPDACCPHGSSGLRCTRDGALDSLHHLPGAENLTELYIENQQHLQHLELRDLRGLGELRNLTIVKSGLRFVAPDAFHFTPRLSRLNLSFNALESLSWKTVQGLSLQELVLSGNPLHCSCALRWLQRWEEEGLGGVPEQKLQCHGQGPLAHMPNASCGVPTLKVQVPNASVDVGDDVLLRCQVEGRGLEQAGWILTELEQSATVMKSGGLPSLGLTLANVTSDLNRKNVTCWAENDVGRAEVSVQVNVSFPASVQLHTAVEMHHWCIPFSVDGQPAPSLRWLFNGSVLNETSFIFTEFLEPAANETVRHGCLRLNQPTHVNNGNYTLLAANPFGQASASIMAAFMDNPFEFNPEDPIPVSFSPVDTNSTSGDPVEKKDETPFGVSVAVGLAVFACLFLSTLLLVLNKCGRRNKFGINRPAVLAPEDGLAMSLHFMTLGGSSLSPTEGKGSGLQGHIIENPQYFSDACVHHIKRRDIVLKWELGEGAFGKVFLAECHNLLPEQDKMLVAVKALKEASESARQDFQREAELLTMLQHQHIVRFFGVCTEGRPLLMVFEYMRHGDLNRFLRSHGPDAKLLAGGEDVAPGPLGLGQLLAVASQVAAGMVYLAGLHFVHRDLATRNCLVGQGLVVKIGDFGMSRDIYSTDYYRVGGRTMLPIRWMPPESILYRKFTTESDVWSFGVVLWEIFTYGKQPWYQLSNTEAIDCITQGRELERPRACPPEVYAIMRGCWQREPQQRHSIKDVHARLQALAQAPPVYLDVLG

Regarding `CCOc1cccc(-c2nccn3c(CCOc4ccc(OC(F)(F)F)cc4)c(C(=O)O)nc23)c1` [Example 92, 8-(3-ethoxyphenyl)-3-{2-[4-(trifluoromethoxy)phenoxy]ethyl}imidazo[1,2-a]pyrazine-2-carboxylic acid], the 50% effective concentration (EC50) stood at 1210 nM. Turning to `O=C(O)c1cc2c(-c3cccc4ncccc34)nccc2n1Cc1noc(-c2ccccc2)n1` [Example 16, 1-[(5-phenyl-1,2,4-oxadiazol-3-yl)methyl]-4-(quinolin-5-yl)-1H-pyrrolo[3,2-c]pyridine-2-carboxylic acid], the EC50 is 5360 nM. In the case of `O=C(O)c1cc2cc(-c3cncnc3)ccc2n1CCOc1ccc(OC(F)(F)F)cc1` [Example 78, 5-pyrimidin-5-yl-1-{2-[4-(trifluoromethoxy)phenoxy]ethyl}-1H-indole-2-carboxylic acid] it was 38.7 nM.

Regarding `CCOc1cccc(-c2nccc3c2cc(C(=O)O)n3CCOc2ccc(Oc3nccs3)cc2)c1` [Example 73, 4-(3-ethoxyphenyl)-1-{2-[4-(1,3-thiazol-2-yloxy)phenoxy]ethyl}-1H-pyrrolo[3,2-c]pyridine-2-carboxylic acid], the EC50 is 776 nM.

Take `CCOc1cccc(-c2nccc3c2cc(C(=O)O)n3CCOc2ccc(C(F)(F)F)nc2)c1` [Example 38, 4-(3-Ethoxyphenyl)-1-(2-{[6-(trifluoromethyl)Pyridin-3-yl]oxy}ethyl)-1H-pyrrolo[3,2-c]pyridine-2-carboxylic acid]: the EC50 amounted to 3920 nM. In the case of `CCCNc1ncc(-c2nccc3c2cc(C(=O)O)n3CCOc2ccc(OC(F)(F)F)cc2)s1` [Example 57, 4-[2-(propylamino)-1,3-thiazol-5-yl]-1-{2-[4-(trifluoromethoxy)phenoxy]ethyl}-1H-pyrrolo[3,2-c]pyridine-2-carboxylic acid] it was 162 nM; in that of `O=C(O)c1cc2cc(-c3cccnc3)ccc2n1CCOc1ccc(OC(F)(F)F)cc1` [Example 81, 5-pyridin-3-yl-1-{2-[4-(trifluoromethoxy)phenoxy]ethyl}-1H-indole-2-carboxylic acid], 469 nM. In the case of `CCCNc1nccc(-c2nccc3c2cc(C(=O)O)n3CCOc2ccc(OC(F)(F)F)cc2)n1` [Example 58, 4-[2-(propylamino)pyrimidin-4-yl]-1-{2-[4-(trifluoromethoxy)phenoxy]ethyl}-1H-pyrrolo[3,2-c]pyridine-2-carboxylic acid] it was 30700 nM; in that of `O=C(O)c1cc2cc(-c3cn[nH]c3)ccc2n1CCOc1ccc(OC(F)(F)F)cc1` [Example 76, 5-(1H-pyrazol-4-yl)-1-{2-[4-(trifluoromethoxy)phenoxy]ethyl}-1H-indole-2-carboxylic acid], 28.5 nM; in that of `CCOc1cccc(-c2nccc3c(CCOc4ccc(OC(F)(F)F)cc4)c(C(=O)O)[nH]c23)c1` [Example 91, 7-(3-ethoxyphenyl)-3-{2-[4-(trifluoromethoxy)phenoxy]ethyl}-1H-pyrrolo[2,3-d]pyridine-2-carboxylic acid], 34.9 nM.

The values are drawn from patent US9102673B2, “Substituted pyrrolo[3,2-c]pyridines as TrkA kinase inhibitors” (Merck Sharp & Dohme Corp., priority 2011, dated 2015).
